From ChEMBL document CHEMBL1201862, “PubChem BioAssay data set” (2004)
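1) Cells in 96-well plates. 2) Compound, 48 h, 5 concentrations. 3) Linear interpolation between surrounding doses. 4) Unreached endpoint = highest concentration. GI50 marks 50% less growth.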 Activity calls are given as the source filed them. No stated cut-off is given here; in the data, active = GI50 up to about 1.1 µM and inactive = higher.

What was measured:
Experiment in all cases: growth of human tumour cells (NCI), 48 h
A498 = tested on: A498
A549 = tested on: A549
DMS-114 = tested on: DMS-114
HOP-18 = tested on: HOP-18
HOP-62 = tested on: HOP-62
K562 = tested on: K562
M14 = tested on: M14
NCI-H226 = tested on: NCI-H226
NCI-H460 = tested on: NCI-H460
OVCAR-4 = tested on: OVCAR-4
OVCAR-8 = tested on: OVCAR-8
SF-295 = tested on: SF-295
SK-MEL-5 = tested on: SK-MEL-5
SK-OV-3 = tested on: SK-OV-3
SN12C = tested on: SN12C
HOP-92 = tested on: HOP-92
BT-549 = tested on: BT-549
DU-145 = tested on: DU-145
Hs-578T = tested on: Hs-578T
MDA-MB-231 = tested on: MDA-MB-231

Measured: GI50

COc1ccc2c(c1)[n+]([O-])c(-c1ccccc1)c(N)[n+]2[O-]
inactive: A498 69.3 µM | A549 37.1 µM | DMS-114 25.4 µM | HOP-18 33.6 µM | HOP-62 39 µM | K562 45.2 µM | M14 29.4 µM | NCI-H226 > 100 µM | NCI-H460 35.6 µM | OVCAR-4 47.3 µM | OVCAR-8 37.2 µM | SF-295 67.1 µM | SK-MEL-5 18 µM | SK-OV-3 > 100 µM | SN12C 51.8 µM

O=C(NNC(=O)c1cc(/C=C/c2cccc([N+](=O)[O-])c2)nc(S)n1)Nc1ccc(Cl)cc1
inactive: A498 > 100 µM | A549 70 µM | DMS-114 30.8 µM | HOP-18 > 100 µM | HOP-62 > 100 µM | K562 39.2 µM | M14 93.8 µM | NCI-H226 > 100 µM | NCI-H460 46.6 µM | OVCAR-8 68.4 µM | SF-295 > 100 µM | SK-MEL-5 86.5 µM | SK-OV-3 > 100 µM | SN12C > 100 µM

Brc1ccc(C[N+]23CN4CN(CN(C4)C2)C3)cc1
inactive: A549 40.4 µM | DMS-114 23.6 µM | HOP-62 > 100 µM | K562 25.4 µM | M14 16.9 µM | NCI-H460 28.3 µM | OVCAR-8 28.3 µM | SF-295 > 100 µM | SK-OV-3 > 100 µM | SN12C 24 µM

Cc1ccc(-c2c(N)[n+]([O-])c3ccccc3[n+]2[O-])cc1
inactive: A498 > 10 µM | A549 23.3 µM | HOP-18 15.7 µM | HOP-62 17.1 µM | HOP-92 > 100 µM | K562 15 µM | M14 12 µM | NCI-H226 17.9 µM | NCI-H460 18.7 µM | OVCAR-4 17.3 µM | OVCAR-8 23.4 µM | SF-295 20 µM | SK-MEL-5 11.4 µM | SK-OV-3 21.2 µM | SN12C 10.6 µM

COC12COC(=O)C1C(c1ccc3c(c1)OCO3)c1cc3c(cc1O2)OCO3 (stereo not given)
inactive: A498 29.2 µM | A549 16.7 µM | BT-549 15.6 µM | DU-145 25 µM | HOP-62 16 µM | HOP-92 37.8 µM | Hs-578T 19.5 µM | K562 4.21 µM | M14 13 µM | MDA-MB-231 25.4 µM | NCI-H226 34.3 µM | NCI-H460 10.5 µM | OVCAR-4 36.5 µM | OVCAR-8 26.1 µM | SF-295 6.95 µM | SK-MEL-5 11.2 µM | SK-OV-3 14.2 µM | SN12C 40 µM

CC1/C=C/C=C/CC/C=C/C=C/C=C/C=C/C(OC2OC(C)C(O)C(N)C2O)CC2OC(CC(O)C(O)CCC(O)CC(O)CC(O)CC(=O)OC(C)C(C)C1O)CC(O)C2C(=O)O (stereo not given)
inactive: A498 18.7 µM | A549 18 µM | BT-549 17 µM | DU-145 17.7 µM | HOP-62 19.4 µM | HOP-92 45.6 µM | Hs-578T 24.8 µM | K562 34.4 µM | M14 19.7 µM | MDA-MB-231 17.6 µM | NCI-H226 13.5 µM | NCI-H460 17.5 µM | OVCAR-4 15.2 µM | OVCAR-8 21.6 µM | SF-295 22.3 µM | SK-MEL-5 19.7 µM | SK-OV-3 23.2 µM | SN12C 15.9 µM

c1ccc(CCCC2Sc3cccc4cccc(c34)S2)cc1
inactive: A549 > 100 µM | DMS-114 > 100 µM | HOP-62 > 100 µM | HOP-92 > 100 µM | K562 > 100 µM | M14 > 100 µM | NCI-H226 88.3 µM | NCI-H460 > 100 µM | OVCAR-4 > 100 µM | OVCAR-8 > 100 µM | SF-295 > 100 µM | SK-MEL-5 78.3 µM | SK-OV-3 > 100 µM | SN12C > 100 µM

c1ccc(-c2sc(-c3ccccc3)c3c2C(c2ccccc2)c2c(-c4ccccc4)sc(-c4ccccc4)c2C3c2ccccc2)cc1 (stereo not given)
inactive: A498 > 100 µM | A549 > 100 µM | DMS-114 > 100 µM | HOP-62 > 100 µM | HOP-92 > 100 µM | K562 > 100 µM | M14 > 100 µM | NCI-H226 > 100 µM | NCI-H460 > 100 µM | OVCAR-4 > 100 µM | OVCAR-8 > 100 µM | SF-295 > 100 µM | SK-MEL-5 > 100 µM | SK-OV-3 > 100 µM | SN12C > 100 µM

CC1=C(c2cc(C(=O)Nc3nccs3)nc(NC#N)n2)Sc2ccccc2N1
inactive: A498 > 100 µM | A549 > 100 µM | HOP-18 > 100 µM | HOP-62 > 100 µM | HOP-92 > 100 µM | K562 > 100 µM | M14 > 100 µM | NCI-H226 > 100 µM | NCI-H460 > 100 µM | OVCAR-4 > 100 µM | OVCAR-8 > 100 µM | SF-295 > 100 µM | SK-MEL-5 > 100 µM | SN12C > 100 µM

O=C(CSc1nnc(-c2ccc(/N=C\c3ccc(Cl)cc3)cc2)o1)Nc1ccccc1Cl
inactive: A549 > 100 µM | DMS-114 > 100 µM | HOP-18 > 100 µM | HOP-62 > 100 µM | K562 > 100 µM | M14 > 100 µM | NCI-H226 > 100 µM | NCI-H460 > 100 µM | OVCAR-4 > 100 µM | OVCAR-8 > 100 µM | SF-295 > 100 µM | SK-MEL-5 > 100 µM | SK-OV-3 > 100 µM | SN12C > 10 µM

COP(=O)(OC)c1ccc(NCc2cc(O)ccc2O)cc1
inactive: A498 92.7 µM | A549 > 100 µM | BT-549 17.9 µM | DU-145 36.8 µM | HOP-62 35.8 µM | HOP-92 21.4 µM | Hs-578T 24.8 µM | K562 30.5 µM | M14 13.8 µM | MDA-MB-231 26.9 µM | NCI-H226 38.9 µM | NCI-H460 22.1 µM | OVCAR-4 27 µM | OVCAR-8 26.8 µM | SF-295 17.3 µM | SK-MEL-5 22.1 µM | SK-OV-3 > 100 µM | SN12C 30.3 µM

O=C(/C=C/c1ccccc1)CSc1nc2ccc(I)cc2c(=O)n1Cc1ccccc1
inactive: A498 14.3 µM | A549 39.9 µM | BT-549 > 77.4 µM | DU-145 15.2 µM | HOP-62 14.3 µM | HOP-92 5.55 µM | Hs-578T 25.3 µM | K562 13.9 µM | M14 55.1 µM | MDA-MB-231 28.9 µM | NCI-H226 12.7 µM | NCI-H460 15.6 µM | OVCAR-4 21.3 µM | OVCAR-8 25.5 µM | SF-295 14 µM | SK-MEL-5 12.7 µM | SK-OV-3 29.6 µM | SN12C 9.86 µM

CC(C)C(N)=O [ISOBUTYRAMIDE]
inactive: A549 > 5000 µM | DMS-114 > 5000 µM | HOP-18 > 5000 µM | HOP-62 > 5000 µM | HOP-92 > 5000 µM | K562 > 5000 µM | M14 > 5000 µM | NCI-H226 > 5000 µM | NCI-H460 > 5000 µM | OVCAR-4 > 5000 µM | OVCAR-8 > 5000 µM | SF-295 > 5000 µM | SK-MEL-5 > 5000 µM | SK-OV-3 > 5000 µM | SN12C > 5000 µM

CN(C(=N)c1ccccc1)c1ccccc1
inactive: A498 > 10 µM | A549 > 100 µM | HOP-18 > 100 µM | HOP-92 51.5 µM | K562 > 100 µM | M14 > 100 µM | NCI-H226 > 100 µM | OVCAR-4 > 100 µM | OVCAR-8 > 100 µM | SF-295 > 100 µM | SK-MEL-5 > 100 µM | SK-OV-3 > 100 µM | SN12C > 100 µM

Nc1ccc2ncc(Nc3ccc(Cl)c(Cl)c3)nc2c1
inactive: A549 26.3 µM | DMS-114 13 µM | HOP-62 42.3 µM | HOP-92 13.6 µM | K562 18.1 µM | M14 19.4 µM | NCI-H226 20.8 µM | NCI-H460 27.4 µM | OVCAR-4 46 µM | OVCAR-8 25.5 µM | SF-295 20 µM | SK-MEL-5 17.5 µM | SK-OV-3 38.9 µM | SN12C 36.4 µM

COc1ccc(C(O)/C(=N/N)c2nc3ccc(Cl)cc3nc2O)cc1 (stereo not given)
inactive: A498 > 100 µM | A549 > 100 µM | BT-549 > 100 µM | DU-145 > 100 µM | HOP-62 > 100 µM | HOP-92 63.4 µM | Hs-578T > 100 µM | K562 > 100 µM | M14 > 100 µM | MDA-MB-231 > 100 µM | NCI-H226 > 100 µM | NCI-H460 > 100 µM | OVCAR-4 > 100 µM | OVCAR-8 > 100 µM | SF-295 > 100 µM | SK-MEL-5 > 100 µM | SK-OV-3 > 100 µM | SN12C > 100 µM

CC(=O)c1c(O)ccc2c1CC(CC=O)O2 (stereo not given)
inactive: A549 > 100 µM | DMS-114 20.1 µM | HOP-62 > 100 µM | HOP-92 34.3 µM | K562 > 100 µM | M14 47.5 µM | NCI-H226 > 100 µM | NCI-H460 > 100 µM | OVCAR-4 98.6 µM | OVCAR-8 27.6 µM | SF-295 > 100 µM | SK-MEL-5 79.8 µM | SK-OV-3 > 100 µM | SN12C 58.9 µM

COc1ccccc1C1(c2c(OC)c(=O)c2=O)SCCCS1
inactive: A498 49 µM | A549 74.8 µM | BT-549 31.6 µM | DU-145 > 100 µM | HOP-62 > 100 µM | HOP-92 19.2 µM | Hs-578T 35 µM | K562 > 100 µM | M14 > 100 µM | MDA-MB-231 83.2 µM | NCI-H226 85.7 µM | NCI-H460 > 100 µM | OVCAR-4 > 100 µM | OVCAR-8 67.1 µM | SF-295 67 µM | SK-MEL-5 > 100 µM | SK-OV-3 > 100 µM | SN12C 36.6 µM
